Test: Storage stability of microencapsulated fish oil fatty acids
Type: physicochemical
From the text: We have performed tests of storage ability while remaining the active ingredients unchanged.

Row | % in the oil (d = 0) | % in the oil (d = 30, 4° C.) | % in the oil (d = 30, 25° C.) | % in the oil (d = 30, 45° C.) | % in the oil (d = 60, 45° C.) | SMILES
1 | 1.4 % in the oil | 1.4 % in the oil | 1.4 % in the oil | 1.3 % in the oil | 1.3 % in the oil | CCCCCCCCCCCCCCCCCC(=O)O [Stearic acid]
2 | 2.7 % in the oil | 2.5 % in the oil | 2.6 % in the oil | 2.5 % in the oil | 2.4 % in the oil | CC/C=C\C/C=C\C/C=C\CCCCCCCC(=O)O [alpha-linolenic acid]
3 | 2.8 % in the oil | 2.6 % in the oil | 2.6 % in the oil | 2.5 % in the oil | 2.5 % in the oil | CCCCC/C=C\C/C=C\CCCCCCCC(=O)O [linoleic acid]

Further lines, the molecule ahead of its results:

Row | SMILES | % in the oil (d = 0) | % in the oil (d = 30, 4° C.) | % in the oil (d = 30, 25° C.) | % in the oil (d = 30, 45° C.) | % in the oil (d = 60, 45° C.)
4 | CCCCCCCC/C=C\CCCCCCCC(=O)O [oleic acid] | 2.9 % in the oil | 2.7 % in the oil | 2.6 % in the oil | 2.6 % in the oil | 2.4 % in the oil
5 | CCCCCCCCCCCCCCCC(=O)O [Palmitic acid] | 1.1 % in the oil | 1.1 % in the oil | 1.1 % in the oil | 1.1 % in the oil | 1.1 % in the oil

Reference: patent publication US20070077308A1, “CONTINUOUS MULTI-MICROENCAPSULATION PROCESS FOR IMPROVING THE STABILITY AND STORAGE LIFE OF BIOLOGICALLY ACTIVE INGREDIENTS” (priority 2003, published 2007)
